In ChEMBL document CHEMBL1201862, “PubChem BioAssay data set” (2004):
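Each compound was tested at five concentrations against cells in 96-well plates for 48 hours. GI50 is the concentration that inhibits growth by half.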 Calls of active or inactive are those of the source. Rule as the data show it: active = GI50 up to about 1.1 µM and inactive = higher.

Legend:
Assay in all cases: DTP human tumour cell line panel, 48 h
[1] = system: MDA-MB-435
[2] = system: SK-MEL-2
[3] = system: NCI-H23
[4] = system: CCRF-CEM
[5] = system: SK-OV-3
[6] = system: OVCAR-3
[7] = system: SNB-75
[8] = system: SF-539
[9] = system: U-251
[10] = system: SW-620
[11] = system: TK-10
[12] = system: SF-295
[13] = system: M14
[14] = system: HCT-15
[15] = system: HT-29
[16] = system: UACC-62
[17] = system: KM12
[18] = system: RPMI-8226
[19] = system: SF-268
[20] = system: MDA-N
[21] = system: ACHN
[22] = system: OVCAR-8
[23] = system: MCF7
[24] = system: OVCAR-4
[25] = system: Malme-3M
[26] = system: NCI-H226
[27] = system: SK-MEL-28
[28] = system: DU-145
[29] = system: EKVX
[30] = system: A498
[31] = system: SNB-19
[32] = system: MOLT-4
[33] = system: A549
[34] = system: IGROV-1
[35] = system: 786-0
[36] = system: UACC-257
[37] = system: PC-3
[38] = system: Hs-578T
[39] = system: OVCAR-5
[40] = system: MDA-MB-231
[41] = system: COLO 205
[42] = system: HCT-116
[43] = system: SK-MEL-5
[44] = system: HOP-62
[45] = system: UO-31
[46] = system: NCI/ADR-RES
[47] = system: LOX IMVI
[48] = system: K562
[49] = system: SR
[50] = system: SN12C
[51] = system: CAKI-1
[52] = system: T47D
[53] = system: HCC 2998
[54] = system: NCI-H460
[55] = system: HL-60
[56] = system: RXF 393
[57] = system: HOP-92
[58] = system: NCI-H522

COc1cc2oc(=O)cc(C)c2c(OC)c1O
GI50 [1]: > 100 µM (inactive)
GI50 [2]: > 100 µM (inactive)
GI50 [3]: > 100 µM (inactive)
GI50 [4]: > 100 µM (inactive)
GI50 [5]: > 100 µM (inactive)
GI50 [6]: > 100 µM (inactive)
GI50 [7]: > 100 µM (inactive)
GI50 [8]: > 100 µM (inactive)
GI50 [9]: > 100 µM (inactive)
GI50 [10]: > 100 µM (inactive)
GI50 [11]: > 100 µM (inactive)
GI50 [12]: > 100 µM (inactive)
GI50 [13]: > 100 µM (inactive)
GI50 [14]: > 100 µM
GI50 [15]: > 100 µM (inactive)
GI50 [16]: > 100 µM (inactive)
GI50 [17]: > 100 µM (inactive)
GI50 [18]: > 100 µM (inactive)
GI50 [19]: > 100 µM (inactive)
GI50 [20]: > 100 µM (inactive)
GI50 [21]: > 100 µM (inactive)
GI50 [22]: > 100 µM (inactive)
GI50 [23]: > 100 µM (inactive)
GI50 [24]: > 100 µM (inactive)
GI50 [25]: > 100 µM (inactive)
GI50 [26]: > 100 µM (inactive)
GI50 [27]: > 100 µM (inactive)
GI50 [28]: > 100 µM (inactive)
GI50 [29]: > 100 µM (inactive)
GI50 [30]: 26.1 µM (inactive)
GI50 [31]: > 100 µM (inactive)
GI50 [32]: > 100 µM (inactive)
GI50 [33]: > 100 µM (inactive)
GI50 [34]: > 100 µM (inactive)
GI50 [35]: > 100 µM (inactive)
GI50 [36]: > 100 µM (inactive)
GI50 [37]: > 100 µM (inactive)
GI50 [38]: 25.2 µM (inactive)
GI50 [39]: > 100 µM (inactive)
GI50 [40]: > 100 µM (inactive)
GI50 [41]: > 100 µM (inactive)
GI50 [42]: > 100 µM (inactive)
GI50 [43]: > 100 µM (inactive)
GI50 [44]: > 100 µM (inactive)
GI50 [45]: > 100 µM (inactive)
GI50 [46]: > 100 µM (inactive)
GI50 [47]: > 100 µM (inactive)
GI50 [48]: > 100 µM (inactive)
GI50 [49]: > 100 µM (inactive)
GI50 [50]: > 100 µM (inactive)

O=C(/C(=C\C(=O)c1cccs1)c1ccsc1)c1ccc(Br)cc1
GI50 [1]: > 100 µM (inactive)
GI50 [2]: > 100 µM (inactive)
GI50 [3]: 80.2 µM (inactive)
GI50 [4]: > 100 µM (inactive)
GI50 [5]: > 100 µM (inactive)
GI50 [7]: > 100 µM (inactive)
GI50 [8]: > 100 µM (inactive)
GI50 [51]: > 100 µM (inactive)
GI50 [9]: > 100 µM (inactive)
GI50 [10]: > 100 µM (inactive)
GI50 [11]: > 100 µM (inactive)
GI50 [12]: > 100 µM (inactive)
GI50 [13]: > 100 µM (inactive)
GI50 [14]: > 100 µM
GI50 [15]: 80 µM (inactive)
GI50 [16]: > 100 µM (inactive)
GI50 [17]: > 100 µM (inactive)
GI50 [18]: 71.1 µM (inactive)
GI50 [19]: > 100 µM (inactive)
GI50 [20]: > 100 µM (inactive)
GI50 [21]: > 100 µM (inactive)
GI50 [22]: > 100 µM (inactive)
GI50 [52]: 18.6 µM (inactive)
GI50 [23]: > 100 µM (inactive)
GI50 [24]: > 10 µM (inactive)
GI50 [25]: 60.1 µM (inactive)
GI50 [26]: > 100 µM (inactive)
GI50 [27]: > 100 µM (inactive)
GI50 [28]: > 100 µM (inactive)
GI50 [29]: 92.5 µM (inactive)
GI50 [30]: > 100 µM (inactive)
GI50 [31]: > 100 µM (inactive)
GI50 [32]: > 100 µM (inactive)
GI50 [33]: > 100 µM (inactive)
GI50 [34]: > 100 µM (inactive)
GI50 [35]: > 100 µM (inactive)
GI50 [36]: 42.8 µM (inactive)
GI50 [37]: > 100 µM (inactive)
GI50 [38]: > 100 µM (inactive)
GI50 [40]: > 100 µM (inactive)
GI50 [53]: > 100 µM (inactive)
GI50 [54]: > 100 µM (inactive)
GI50 [41]: > 100 µM (inactive)
GI50 [42]: > 100 µM (inactive)
GI50 [43]: > 100 µM (inactive)
GI50 [55]: > 100 µM (inactive)
GI50 [44]: > 100 µM (inactive)
GI50 [45]: > 100 µM (inactive)
GI50 [46]: 88.5 µM (inactive)
GI50 [48]: > 100 µM (inactive)
GI50 [49]: > 100 µM (inactive)
GI50 [50]: > 100 µM (inactive)

CCCCCCCCCc1cc(=O)c2c(O)cc(O)cc2o1
GI50 [1]: 18.7 µM (inactive)
GI50 [2]: 18.9 µM (inactive)
GI50 [3]: 18.5 µM (inactive)
GI50 [4]: 24.3 µM (inactive)
GI50 [5]: 17.1 µM (inactive)
GI50 [6]: 15.7 µM (inactive)
GI50 [7]: 18.1 µM (inactive)
GI50 [8]: 17.3 µM (inactive)
GI50 [51]: > 100 µM (inactive)
GI50 [9]: 28.6 µM (inactive)
GI50 [10]: 27.9 µM (inactive)
GI50 [11]: 18.8 µM (inactive)
GI50 [12]: 18.7 µM (inactive)
GI50 [13]: 18.1 µM (inactive)
GI50 [14]: 18.8 µM
GI50 [15]: 19.1 µM (inactive)
GI50 [17]: 6.67 µM (inactive)
GI50 [18]: 5.86 µM (inactive)
GI50 [56]: 15.1 µM (inactive)
GI50 [19]: 3.82 µM (inactive)
GI50 [20]: > 100 µM (inactive)
GI50 [21]: 19 µM (inactive)
GI50 [22]: 20.2 µM (inactive)
GI50 [52]: 22.2 µM (inactive)
GI50 [24]: 24.3 µM (inactive)
GI50 [25]: 16.4 µM (inactive)
GI50 [26]: 17.8 µM (inactive)
GI50 [27]: 19.2 µM (inactive)
GI50 [28]: 20.2 µM (inactive)
GI50 [29]: 18.7 µM (inactive)
GI50 [30]: 18.1 µM (inactive)
GI50 [31]: 18.9 µM (inactive)
GI50 [32]: 4.91 µM (inactive)
GI50 [33]: 18.5 µM (inactive)
GI50 [34]: 16.5 µM (inactive)
GI50 [35]: 21.6 µM (inactive)
GI50 [36]: 19.7 µM (inactive)
GI50 [37]: 18 µM (inactive)
GI50 [38]: 16.7 µM (inactive)
GI50 [39]: 16.6 µM (inactive)
GI50 [40]: > 100 µM (inactive)
GI50 [53]: 21.1 µM (inactive)
GI50 [57]: 16.3 µM (inactive)
GI50 [54]: 22.6 µM (inactive)
GI50 [41]: 27.2 µM (inactive)
GI50 [42]: 21.7 µM (inactive)
GI50 [58]: 15.1 µM (inactive)
GI50 [43]: 19.8 µM (inactive)
GI50 [55]: 14.3 µM (inactive)
GI50 [44]: 14.8 µM (inactive)
GI50 [45]: 16.9 µM (inactive)
GI50 [46]: 17.6 µM (inactive)
GI50 [47]: 21.8 µM (inactive)
GI50 [48]: 10.2 µM (inactive)
GI50 [49]: 15.2 µM (inactive)
GI50 [50]: 22.2 µM (inactive)
